# Measurements as given in patent publication US20240245711A1, “A 19-NOR C3,3-DISUBSTITUTED C21-N-PYRAZOLYL STEROID FOR THE TREATMENT OF MAJOR DEPRESSIVE DISORDER” (Sage Therapeutics, Inc., priority 2021, published 2024).
# Where “and” joins values, the source holds several entries; their conditions need not be identical. Equal entries are not always repeated.
# Tested on: adult subjects with Major Depressive Disorder
# Assay: Phase 3 open-label 1-year study: need for re-treatment (number of and time to re-treatments)
# Type: in vivo, human
# Settings: for Subjects with No re-treatment (Cycle 1), n (%) / Subjects with Only 1 re-treatment (Cycle 2), n (%) / Subjects with Only 2 re-treatment (Cycle 3), n (%) / Subjects with Only 3 re-treatment (Cycle 4), n (%) / Subjects with Only 4 re-treatment (Cycle 5), n (%): FAS; for Time to re-treatment, Mean (SD): Low Dose Cohort (FAS)
# Text: Secondary Objective: To assess the need for re-treatment with Compound (1) following initial treatment in adults with MDD currently experiencing an MDE over a 1-year period, and to assess the response of initial treatment and re-treatment(s) with Compound (1) following an initial 2-week treatment period in adults with MDD currently experiencing an MDE over a 1-year period.
# Secondary Endpoints: The need for re-treatment with Compound (1) as assessed by: time to first re-treatment (Kaplan-Meier curves), number of subjects achieving the requirements for re-treatment, number of re-treatment cycles for each subject, the response of initial treatment and/or re-treatment as assessed by: change from baseline in the 17-item Hamilton Rating Scale for Depression (HAM-D) total score at the end of each 14-day treatment (initial and/or re-treatment) period, HAM-D response at the end of each 14-day treatment (initial and/or re-treatment) period, defined as a ≥50% reduction in HAM-D score from baseline, HAM-D remission at the end of each 14-day treatment (initial and/or re-treatment) period, defined as HAM-D total score≤7, Clinical Global Impression-Improvement (CGI-I) response, defined as “much improved” or “very much improved”, at the end of each 14-day treatment (initial and/or re-treatment) period, change from baseline in Clinical Global Impression-Severity (CGI-S) score at the end of each 14-day treatment (initial and/or re-treatment) period.
# Subjects who continued in the Observation Period were monitored remotely via PHQ-9 assessment every two weeks. If PHQ-9 score was >=10 at any assessment, PHQ-9 assessment was switch to every week until the score came down below 10 or the subject was dosed with Compound (1) in a subsequent cycle, whichever was earlier. A subject was to come back to the site for HAM-D assessment within a week of PHQ-9 score >=10; if the HAM-D total score >=20 and at least 56 days had elapsed since the last dose of Compound (1), another dosing cycle of Compound (1) were to start. If any of these criteria were not met, the subject couldn't be treated with Compound (1) at that time. Without the trigger of PHQ-9>=10 the subject was to have a clinic visit every 8 weeks. A subject could have at most 5 cycles of treatment within a year. FIG. 2 is a depiction of the eligibility criteria of the study.
# The cohorts pertaining to the different doses that the subjects received were defined as following: • 50 mg cohort: This cohort includes subjects who have initiated treatment with 50 mg and received re-treatment with 50 mg only. • 30 mg cohort: This cohort includes subjects who have initiated treatment with 30 mg regardless of the dose they have received in re-treatments. • Low dose cohort: This cohort includes subjects who have initiated treatment with 30 mg and received re-treatment with 30 mg only. • Dose switch cohort: This cohort includes subjects who have received initial treatment with 30 mg and at least one subsequent re-treatment with 50 mg. • Study Period X: starts on the date of the first dose of Compound (1) in cycle X and goes up to one day prior to the first dose of the next cycle. In some embodiments, X is any number from 1 to 5. • Treatment Period X: starts on the date of the first dose of Compound (1) in cycle X and goes up to one day after the last dose in cycle X. In some embodiments, X is any number from 1 to 5. • Treatment Cycle X: starts on the date of the first dose of Compound (1) in cycle X and goes up to 14 days after the last dose in cycle X. The treatment cycles may be denoted as C1-C5. • Observation period X: starts the day after Treatment Cycle X ends and goes up to one day prior to the start of next treatment cycle. In some embodiments, X is any number from 1 to 5.
# Analysis Sets: The safety set was defined as all subjects who were administered study drug. The period-specific safety set includes subjects in the safety set who were administered study drug in the corresponding treatment cycle. […]
# [1] = ATD Use at Baseline = No, 30 mg Cohort (N = 280)
# [2] = ATD Use at Baseline = No, 50 mg Cohort (N = 86)
# [3] = ATD Use at Baseline = Yes, 30 mg Cohort (N = 209)
# [4] = ATD Use at Baseline = Yes, 50 mg Cohort (N = 60)
compound,measurement,setting,value
"C[C@@]1(O)CC[C@H]2[C@H](CC[C@@H]3[C@@H]2CC[C@]2(C)[C@@H](C(=O)Cn4cc(C#N)cn4)CC[C@@H]32)C1 [Compound (1), 1-(2-((3R,5R,8R,9R,10S,13S,14S,17S)-3-hydroxy-3,13-dimethylhexadecahydro-1H-cyclopenta[a]phenanthren-17-yl)-2-oxoethyl)-1H-pyrazole-4-carbonitrile]","Time to re-treatment since last dose in previous cycle, Median","Cycle 5, Dose Switch (FAS)",58 days
same,"Time to re-treatment since last dose in previous cycle, Min - Max","Cycle 5, Dose Switch (FAS)",57 to 79 days
same,n/N: FAS subjects eligible and dosed in Cycle X / eligible for dosing in Cycle X,"Cycle 5, Low Dose",20/34
same,"Time to re-treatment since last dose in previous cycle, Mean (SD)","Cycle 5, Low Dose (FAS)",63.2 (7.42) Days
same,"Time to re-treatment since last dose in previous cycle, Median","Cycle 5, Low Dose (FAS)",60.5 days
same,"Time to re-treatment since last dose in previous cycle, Min - Max","Cycle 5, Low Dose (FAS)",58 to 86 days
same,"Dosed in at least 1 re-treatment cycle, % of eligible",Dose Switch (80 eligible),80 (100%)
same,"Qualified to be retreated in at least 1 more cycle (HAM-D total score >= 20), % of eligible",Dose Switch (80 eligible),80 (100%)
same,"Subjects with No re-treatment (Cycle 1), n (%) of FAS",Dose Switch (N = 80),0%
same,"Subjects with Only 1 re-treatment (Cycle 2), n (%) of FAS",Dose Switch (N = 80),9 (11.3%)
same,"Subjects with Only 2 re-treatment (Cycle 3), n (%) of FAS",Dose Switch (N = 80),18 (22.5%)
same,"Subjects with Only 3 re-treatment (Cycle 4), n (%) of FAS",Dose Switch (N = 80),30 (37.5%)
same,"Subjects with Only 4 re-treatment (Cycle 5), n (%) of FAS",Dose Switch (N = 80),23 (28.8%)
same,Average (range) number of re-treatments per subject over 1-year follow-up,Dose Switch Cohort,2.8 (1-4)
same,"FAS Subjects Dosed in C2, n (%) of FAS",Dose Switch Cohort,80 (100%)
same,"FAS Subjects dosed in C3, n (%) of FAS",Dose Switch Cohort,71 (88.8%)
same,"FAS Subjects dosed in C4, n (%) of FAS",Dose Switch Cohort,53 (66.3%)
same,"FAS Subjects dosed in C5, n (%) of FAS",Dose Switch Cohort,23 (28.8%)
same,"Subjects with No re-treatment (Cycle 1), n (%)",[1],114 (40.7%)
same,"Subjects with Only 1 re-treatment (Cycle 2), n (%)",[1],80 (28.6%)
same,"Subjects with Only 2 re-treatment (Cycle 3), n (%)",[1],31 (11.1%)
same,"Subjects with Only 3 re-treatment (Cycle 4), n (%)",[1],33 (11.8%)
same,"Subjects with Only 4 re-treatment (Cycle 5), n (%)",[1],22 (7.9%)
same,"Subjects with No re-treatment (Cycle 1), n (%)",[2],72 (83.7%)
same,"Subjects with Only 1 re-treatment (Cycle 2), n (%)",[2],13 (15.1%)
same,"Subjects with Only 2 re-treatment (Cycle 3), n (%)",[2],1 (1.2%)
same,"Subjects with Only 3 re-treatment (Cycle 4), n (%)",[2],0%
same,"Subjects with Only 4 re-treatment (Cycle 5), n (%)",[2],0%
same,"Subjects with No re-treatment (Cycle 1), n (%)",[3],96 (45.9%)
same,"Subjects with Only 1 re-treatment (Cycle 2), n (%)",[3],45 (21.5%)
same,"Subjects with Only 2 re-treatment (Cycle 3), n (%)",[3],27 (12.9%)
same,"Subjects with Only 3 re-treatment (Cycle 4), n (%)",[3],20 (9.6%)
same,"Subjects with Only 4 re-treatment (Cycle 5), n (%)",[3],21 (10.0%)
same,"Subjects with No re-treatment (Cycle 1), n (%)",[4],48 (80.0%)
same,"Subjects with Only 1 re-treatment (Cycle 2), n (%)",[4],12 (20.0%)
same,"Subjects with Only 2 re-treatment (Cycle 3), n (%)",[4],0%
same,"Dosed in at least 1 re-treatment cycle, % of eligible",Low Dose (199 of 392 eligible),199 0.8%) and 199 (0.8%)
same,"Qualified to be retreated in at least 1 more cycle (HAM-D total score >= 20), % of eligible",Low Dose (392 eligible),225 (57.4%)
same,"Subjects with No re-treatment (Cycle 1), n (%) of FAS",Low Dose (N = 409),210 (51.3%)
same,"Subjects with Only 1 re-treatment (Cycle 2), n (%) of FAS",Low Dose (N = 409),116 (28.4%)
same,"Subjects with Only 2 re-treatment (Cycle 3), n (%) of FAS",Low Dose (N = 409),40 (9.8%) and 40 (9.7%)
same,"Subjects with Only 3 re-treatment (Cycle 4), n (%) of FAS",Low Dose (N = 409),23 (5.6%)
same,"Subjects with Only 4 re-treatment (Cycle 5), n (%) of FAS",Low Dose (N = 409),20 (4.9%)
same,Average (range) number of re-treatments per subject over 1-year follow-up,Low Dose Cohort,0.8 (0-4) and 0.8
same,Average total number of treatments per subject,Low Dose Cohort,1.8
same,Effect of antidepressant use on length of time between re-treatments,Low Dose Cohort,did not make much difference
same,"FAS Subjects Dosed in C2, n (%) of FAS",Low Dose Cohort,199 (48.7%)
same,"FAS Subjects dosed in C3, n (%) of FAS",Low Dose Cohort,83 (20.3%)
same,"FAS Subjects dosed in C4, n (%) of FAS",Low Dose Cohort,43 (10.5%)
same,"FAS Subjects dosed in C5, n (%) of FAS",Low Dose Cohort,20 (4.9%)
same,"Time to re-treatment, Mean (SD)","dosed in Cycle 2, ATD use at baseline of previous cycle No",97.2 (49.59) Days and 97.2 Days
same,"Time to re-treatment, Mean (SD)","dosed in Cycle 2, ATD use at baseline of previous cycle Yes",103.3 (56.26) Days and 103.3 Days
same,"Time to re-treatment, Mean (SD)","dosed in Cycle 3, ATD use at baseline of previous cycle No",88.4 (37.52) Days and 88.4 Days
same,"Time to re-treatment, Mean (SD)","dosed in Cycle 3, ATD use at baseline of previous cycle Yes",85.9 (32.14) Days and 85.9 Days
same,"Time to re-treatment, Mean (SD)","dosed in Cycle 4, ATD use at baseline of previous cycle No",73.0 (18.40) Days and 73.0 Days
same,"Time to re-treatment, Mean (SD)","dosed in Cycle 4, ATD use at baseline of previous cycle Yes",71.1 (17.21) Days and 71.1 Days
same,"Time to re-treatment, Mean (SD)","dosed in Cycle 5, ATD use at baseline of previous cycle No",61.9 (3.28) Days and 61.9 Days
same,"Time to re-treatment, Mean (SD)","dosed in Cycle 5, ATD use at baseline of previous cycle Yes",64.5 (10.09) Days and 64.5 Days
same,Re-treatment rates with and without pre-existing antidepressant therapy,in vivo,similar
same,Mean (range) number of total treatment courses,overall study population,1.8 (1-5)
same,Patients not requiring additional treatment courses during their time in the study,overall study population,43.7%
